{"source": "patent US20060270694A1", "about": "“JAK kinase inhibitors and their uses” (Rigel Pharmaceuticals, Inc., priority 2005, published 2006)", "data": [{"test_system": "JAK kinase (JAK1 and JAK3)", "test": "IL-4 activation assay: CD23 upregulation in IL-4 stimulated Ramos B-cells, FACS", "type": "cell-based, human", "conditions": "TABLE 1; IC50 CHMC degranulation / IC50 IL-4 Ramos CD23; minimum ratio, calculated using Syk IC50 of 50 μM (upper limit of assay)", "experimental": "(§1) The selectivity of the compounds illustrated in TABLES 1 and 2 for JAK kinases as compared to Syk kinase was confirmed in cellular assays designed to test for JAK and Syk inhibition. Briefly, JAK inhibition was tested in human Ramos B-cells activated with IL-4. Twenty to 24 hours post stimulation, the cells are stained for upregulation of CD23 and analyzed by FACS. Stimulation of the B-cells with IL-4 leads to the activation of the JAK/STAT pathway through phosphorylation of the JAK kinase JAK1 and JAK3, which in turn phosphorylate and activate transcription of factor […].\n(§2) For the assay, human Ramos B-cells (ATCC, Catalog No. CRL-1596) are cultured in RPMI 1640 medium (Cellgro, Catalog No. 10-040-CM) containing 10% fetal bovine serum (JRH, Catalog No. 12106-500M) according to the propagation protocol supplied with the cells, and maintained at a density of approximately 3.5×10^5 cells/ml. The day before the assay, the cells are diluted to 3.5×10^5 cells/ml to insure they are in the logorithmic growth phase. The cells are spun down, and suspended in RPMI 1640 medium containing 5% fetal bovine serum to a density of 3.5×10^4 cells/ml and aliquots dispensed into a 96-well tissue culture plate. Cells are incubated with test compound (dissolved in DMSO) or DMSO (control) for 1 hr at 37° C. and then stimulated with IL-4 (Pepotech, Catalog No. 200-04) for 20-24 hours (final concentration is 50 Units/ml). Cells are then spun down, stained with anti-CD23-PE antibody (BD Pharmigen, Catalog No.555711) and analyzed by FACS.", "values": [{"smiles": "CN1CCN(c2ccc(Nc3ncc(F)c(NC4CC(C)(C)N(C)C(C)(C)C4)n3)cc2Cl)CC1", "note": "[Cmpd 1]", "IC50 Ratio (Syk/JAK)": 207}, {"smiles": "Cc1cc(Nc2ncc(F)c(NC3CCCC3C(N)=O)n2)ccc1N1CCN(C)CC1", "note": "(stereo not shown) [Cmpd 2]", "IC50 Ratio (Syk/JAK)": 155}, {"smiles": "Cc1ccc(Nc2ccnc(Nc3ccc(C)c([N+](=O)[O-])c3)n2)cc1[N+](=O)[O-]", "note": "[Cmpd 3]", "IC50 Ratio (Syk/JAK)": 147}, {"smiles": "Cc1noc(COc2ccc(Nc3nc(Nc4cc(Cl)c(O)c(Cl)c4)ncc3F)cc2)n1", "note": "[Cmpd 4]", "IC50 Ratio (Syk/JAK)": 145}, {"smiles": "COC(=O)c1cc(Nc2ncc(F)c(Nc3ccc4c(c3)OCCO4)n2)cc(-c2ncco2)c1", "note": "[Cmpd 5]", "IC50 Ratio (Syk/JAK)": 105}, {"smiles": "NC(=O)c1ccc(Nc2ncc(F)c(NC3CCCC3)n2)cc1", "note": "[Cmpd 6]", "IC50 Ratio (Syk/JAK)": 70}, {"smiles": "CNC(=O)n1ccc2ccc(Nc3nc(Nc4cc(C)cc(C)c4)ncc3F)cc21", "note": "[Cmpd 7]", "IC50 Ratio (Syk/JAK)": 57}, {"smiles": "CNC(=O)COc1cccc(Nc2ncc(F)c(Nc3ccc(OC)c(CN(C)C)c3)n2)c1", "note": "[Cmpd 8]", "IC50 Ratio (Syk/JAK)": 51}, {"smiles": "CCNC(=O)Nc1ccc(Nc2ncc(F)c(Nc3ccc(NC(=O)NCC)cc3)n2)cc1", "note": "[Cmpd 9]", "IC50 Ratio (Syk/JAK)": 47}, {"smiles": "CCOC(=O)c1cnc(Nc2ccc3[nH]ncc3c2)nc1Nc1ccc2[nH]ncc2c1", "note": "[Cmpd 10]", "IC50 Ratio (Syk/JAK)": 43}, {"smiles": "CC(C)Nc1nc(Nc2cccc(N3CCN(C)CC3)c2)ncc1F", "note": "[Cmpd 11]", "IC50 Ratio (Syk/JAK)": 38}, {"smiles": "Oc1cccc(Nc2ncc(F)c(Nc3cccc(-c4nnc(-c5ccccc5)o4)c3)n2)c1", "note": "[Cmpd 12]", "IC50 Ratio (Syk/JAK)": 36}, {"smiles": "CNC(=O)C1=Cc2cccc(Nc3ncc(F)c(Nc4cc(C)cc(C)c4)n3)c2C1", "note": "[Cmpd 13]", "IC50 Ratio (Syk/JAK)": 26}, {"smiles": "Cc1cc(Nc2ncc(F)c(N[C@@H]3CC=CC[C@H]3C(N)=O)n2)ccc1N1CCN(C)CC1", "note": "[Cmpd 14]", "IC50 Ratio (Syk/JAK)": 25}, {"smiles": "COc1ccc(Nc2ccnc(Nc3ccc(OC)c(-c4ccccc4)c3)n2)cc1-c1ccccc1", "note": "[Cmpd 15]", "IC50 Ratio (Syk/JAK)": 24}, {"smiles": "Fc1cnc(Nc2ccc3c(c2)OCCO3)nc1Nn1cccc1", "note": "[Cmpd 16]", "IC50 Ratio (Syk/JAK)": 22}, {"smiles": "CCCCOc1ccc(Nc2nc(Nc3ccc4c(c3)OCCO4)ncc2F)cc1", "note": "[Cmpd 17]", "IC50 Ratio (Syk/JAK)": 20}, {"smiles": "O=C(O)C1CCC(Nc2nc(Nc3ccc4c(c3)OCCO4)ncc2F)CC1", "note": "(stereo not shown) [Cmpd 18]", "IC50 Ratio (Syk/JAK)": 20}, {"smiles": "Fc1cnc(Nc2ccc3c(c2)OCCO3)nc1NC1CCCCC1", "note": "[Cmpd 19]", "IC50 Ratio (Syk/JAK)": 15}, {"smiles": "CC(=O)N(C)c1ccc(Nc2ncc(F)c(N3CCN(C)CC3)n2)cc1", "note": "[Cmpd 20]", "IC50 Ratio (Syk/JAK)": 14}, {"smiles": "COc1ccc(Nc2nc(Nc3cc(Cl)c(OC)c(Cl)c3)ncc2F)cc1Cl", "note": "[Cmpd 21]", "IC50 Ratio (Syk/JAK)": 14}, {"smiles": "CNC(=O)COc1cccc(Nc2ncc(F)c(Nc3ccc(OC)c(CN(C(=O)OC(C)(C)C)C(C)C)c3)n2)c1", "note": "[Cmpd 22]", "IC50 Ratio (Syk/JAK)": 13}, {"smiles": "CCN1CCN(c2ccc(Nc3ncc(F)c(NC4CC(C)(C)N(C)C(C)(C)C4)n3)cn2)CC1", "note": "[Cmpd 23]", "IC50 Ratio (Syk/JAK)": 12}, {"smiles": "Fc1ccc(Nc2ncc(F)c(Nc3ccc4c(c3)OCCO4)n2)cc1Cl", "note": "[Cmpd 24]", "IC50 Ratio (Syk/JAK)": 12}, {"smiles": "COC(=O)c1ccc(Nc2ncc(F)c(Nc3ccc(OC)c(Cl)c3)n2)cc1", "note": "[Cmpd 25]", "IC50 Ratio (Syk/JAK)": 13}, {"smiles": "C[C@H]1Oc2ccc(Nc3nc(Nc4ccc(C(=O)NCC(=O)O)cc4)ncc3F)cc2NC1=O", "note": "[Cmpd 26]", "IC50 Ratio (Syk/JAK)": 10}]}, {"test_system": "JAK kinase (JAK1 and JAK3)", "test": "IL-4 activation assay: CD23 upregulation in IL-4 stimulated Ramos B-cells, FACS", "type": "cell-based, human", "conditions": "TABLE 2; IC50 CHMC degranulation (tryptase) / IC50 IL-4 Ramos CD23", "experimental": "as §1, §2", "values": [{"smiles": "CCN(CC)CCNC(=O)c1ccc(Nc2ncc(F)c(Nc3ccc4c(c3)NC(=O)[C@H](C)O4)n2)cc1", "note": "[Cmpd 27]", "IC50 Ratio (Syk/JAK)": 247}, {"smiles": "Cc1cc(Nc2nc(Nc3ccc(C(N)=O)cc3)ncc2F)ccc1N1CCN(C)CC1", "note": "[Cmpd 28]", "IC50 Ratio (Syk/JAK)": 146}, {"smiles": "Fc1cnc(Nc2cccc(-c3ncco3)c2)nc1Nc1cc(C2CC2)n[nH]1", "note": "[Cmpd 29]", "IC50 Ratio (Syk/JAK)": 109}, {"smiles": "CN1CCN(c2ccc(Nc3ncc(F)c(Nc4cc(C5CC5)n[nH]4)n3)cc2Cl)CC1", "note": "[Cmpd 30]", "IC50 Ratio (Syk/JAK)": 85}, {"smiles": "CNC(=O)COc1cc(Nc2ncc(F)c(Nc3cccc(O)c3)n2)cc(OCC(=O)NC)c1", "note": "[Cmpd 31]", "IC50 Ratio (Syk/JAK)": 74}, {"smiles": "NCc1ccc(Nc2ncc(F)c(Nc3ccc(CN)cc3)n2)cc1", "note": "[Cmpd 32]", "IC50 Ratio (Syk/JAK)": 65}, {"smiles": "CCN(CC)CCNC(=O)c1ccc(Nc2ncc(F)c(Nc3ccc4c(c3)NC(=O)C(CCO)O4)n2)cc1", "note": "(stereo not shown) [Cmpd 33]", "IC50 Ratio (Syk/JAK)": 57}, {"smiles": "CCN(CC)CCNC(=O)c1ccc(Nc2ncc(F)c(Nc3ccc(OCc4nc(C)no4)cc3)n2)cc1", "note": "[Cmpd 34]", "IC50 Ratio (Syk/JAK)": 55}, {"smiles": "COc1cc(OC)cc(N(C)c2nc(Nc3cc(C)cc(C)c3)ncc2F)c1", "note": "[Cmpd 35]", "IC50 Ratio (Syk/JAK)": 44}, {"smiles": "COc1ccc(Nc2nc(Nc3ccc(N4CCN(C)CC4)c(C#N)c3)ncc2F)cc1Cl", "note": "[Cmpd 36]", "IC50 Ratio (Syk/JAK)": 43}, {"smiles": "C[C@@H]1Oc2ccc(Nc3nc(Nc4ccc(CN)cc4)ncc3F)cc2NC1=O", "note": "[Cmpd 37]", "IC50 Ratio (Syk/JAK)": 42}, {"smiles": "CCN(CC)CCNC(=O)c1ccc(Nc2ncc(F)c(NC3CCCC3)n2)cc1", "note": "[Cmpd 38]", "IC50 Ratio (Syk/JAK)": 39}, {"smiles": "CN1CCN(c2ccc(Nc3ncc(F)c(NC4CCC4)n3)cc2CO)CC1", "note": "[Cmpd 39]", "IC50 Ratio (Syk/JAK)": 59}, {"smiles": "CN1CCN(c2cccc(Nc3ncc(F)c(Nc4ccc5c(n4)NCCO5)n3)c2)CC1", "note": "[Cmpd 40]", "IC50 Ratio (Syk/JAK)": 32}, {"smiles": "COc1ccc(N(C)c2nc(Nc3cccc(-c4ncco4)c3)ncc2F)cc1OC", "note": "[Cmpd 41]", "IC50 Ratio (Syk/JAK)": 32}, {"smiles": "C[C@@H]1Oc2ccc(Nc3nc(Nc4ccc(C(N)=O)cc4)ncc3F)cc2NC1=O", "note": "[Cmpd 42]", "IC50 Ratio (Syk/JAK)": 32}, {"smiles": "COc1c(C)cc(Nc2ncc(F)c(NC3=NCCN3)n2)cc1C", "note": "[Cmpd 43]", "IC50 Ratio (Syk/JAK)": 31}, {"smiles": "NCc1cccc(Nc2ncc(F)c(Nc3cccc(CN)c3)n2)c1", "note": "[Cmpd 44]", "IC50 Ratio (Syk/JAK)": 30}, {"smiles": "COc1ccc(Nc2nc(Nc3cccc(-c4ncco4)c3)ncc2F)cc1OC", "note": "[Cmpd 45]", "IC50 Ratio (Syk/JAK)": 30}, {"smiles": "NC(=O)c1ccc(Nc2ncc(F)c(Nc3ccc(C(N)=O)cc3)n2)cc1", "note": "[Cmpd 46]", "IC50 Ratio (Syk/JAK)": 30}, {"smiles": "CCN(CC)CCNC(=O)c1ccc(Nc2ncc(F)c(Nc3cc(OC)cc(OC)c3)n2)cc1", "note": "[Cmpd 47]", "IC50 Ratio (Syk/JAK)": 29}, {"smiles": "CCN(CC)CCNC(=O)c1ccc(Nc2ncc(F)c(Nc3ccc(Cl)c(OC)c3)n2)cc1", "note": "[Cmpd 48]", "IC50 Ratio (Syk/JAK)": 28}, {"smiles": "Cc1cc(Nc2ncc(F)c(NC3CC(C)(C)N(C)C(C)(C)C3)n2)ccc1N1CCN(C)CC1", "note": "[Cmpd 49]", "IC50 Ratio (Syk/JAK)": 26}, {"smiles": "COc1ccc(Nc2nc(Nc3ccc(N4CCN(C)CC4)c(C(N)=O)c3)ncc2F)cc1Cl", "note": "[Cmpd 50]", "IC50 Ratio (Syk/JAK)": 26}, {"smiles": "COc1ccc(Nc2ncc(F)c(Nc3ccc(OCc4nc(C)no4)cc3)n2)cc1Cl", "note": "[Cmpd 51]", "IC50 Ratio (Syk/JAK)": 25}, {"smiles": "NCCNC(=O)c1cc2cc(Nc3ncc(F)c(Nc4ccc5oc(C(=O)NCCN)cc5c4)n3)ccc2o1", "note": "[Cmpd 52]", "IC50 Ratio (Syk/JAK)": 25}, {"smiles": "CNC(=O)CNC(=O)c1ccc(Nc2ncc(F)c(Nc3ccc4c(c3)C(N)CCO4)n2)cc1", "note": "(stereo not shown) [Cmpd 53]", "IC50 Ratio (Syk/JAK)": 24}, {"smiles": "N#Cc1ccc(Nc2ncc(F)c(Nc3ccc(C#N)cc3)n2)cc1", "note": "[Cmpd 54]", "IC50 Ratio (Syk/JAK)": 24}, {"smiles": "CNC(=O)c1cc(Nc2ncc(F)c(Nc3ccc(OC)c(Cl)c3)n2)ccc1N1CCN(C)CC1", "note": "[Cmpd 55]", "IC50 Ratio (Syk/JAK)": 23}, {"smiles": "CN1CCN(C(=O)CNc2cccc(Nc3ncc(F)c(Nc4cccc(NCCO)c4)n3)c2)CC1", "note": "[Cmpd 56]", "IC50 Ratio (Syk/JAK)": 21}, {"smiles": "O=C1Nc2ccc(Nc3nc(Nc4cccc(-c5ncco5)c4)ncc3F)cc2OC1CCO", "note": "(stereo not shown) [Cmpd 57]", "IC50 Ratio (Syk/JAK)": 21}, {"smiles": "CCN(CC)CCNC(=O)c1ccc(Nc2ncc(F)c(Nc3ccc(OC)c(Cl)c3)n2)cc1", "note": "[Cmpd 58]", "IC50 Ratio (Syk/JAK)": 21}, {"smiles": "CCN(CC)CCNC(=O)c1ccc(Nc2ncc(F)c(Nc3ccc(Cl)c(Cl)c3)n2)cc1", "note": "[Cmpd 59]", "IC50 Ratio (Syk/JAK)": 21}, {"smiles": "NC(=O)c1ccc(Nc2ncc(F)c(Nc3ccc4c(c3)NC(=O)C(CCO)O4)n2)cc1", "note": "(stereo not shown) [Cmpd 60]", "IC50 Ratio (Syk/JAK)": 20}, {"smiles": "COC(=O)c1ccc(Nc2ncc(F)c(Nc3ccc(C(=O)OC)cc3)n2)cc1", "note": "[Cmpd 61]", "IC50 Ratio (Syk/JAK)": 20}, {"smiles": "O=[N+]([O-])c1cc(Nc2ccnc(Nc3ccc(Cl)c([N+](=O)[O-])c3)n2)ccc1Cl", "note": "[Cmpd 62]", "IC50 Ratio (Syk/JAK)": 19}, {"smiles": "COc1ccc(Nc2nc(Nc3cccc(-c4nnc(C(C)(C)C)o4)c3)ncc2F)cc1OC", "note": "[Cmpd 63]", "IC50 Ratio (Syk/JAK)": 19}, {"smiles": "CS(=O)(=O)Nc1ccc(Nc2ncc(F)c(Nc3ccc(NS(C)(=O)=O)cc3)n2)cc1", "note": "[Cmpd 64]", "IC50 Ratio (Syk/JAK)": 19}]}]}
